Results reported in ChEMBL document CHEMBL3112450, “Synthesis and in vitro antitumor evaluation of primary amine substituted quinazoline linked benzimidazole” (Bioorg Med Chem Lett, 2014).

Experiments:
Assay type in all cases: functional
HL-60(TB) [1] = assay: Cytotoxicity against human HL-60(TB) cells after 48 hrs by SRB assay; settings: HL-60, 48 h
MDA-MB-231 [2] = assay: Cytotoxicity against human MDA-MB-231 cells assessed as cell growth at 10^-4 M after 48 hrs by SRB assay; settings: MDA-MB-231, 48 h, read-out: Activity
CAKI-1 [3] = assay: Cytotoxicity against human Caki1 cells assessed as cell growth at 10^-4 M after 48 hrs by SRB assay; settings: CAKI-1, 48 h, read-out: Activity
NCI-H322M = assay: Cytotoxicity against human NCI-H322M cells assessed as cell growth at 10^-7 M after 48 hrs by SRB assay; settings: read-out: Activity
M14 = assay: Cytotoxicity against human M14 cells assessed as cell growth at 10^-4 M after 48 hrs by SRB assay; settings: M14, 48 h, read-out: Activity
HCC 2998 [4] = assay: Cytotoxicity against human HCC2998 cells assessed as cell growth at 10^-4 M after 48 hrs by SRB assay; settings: HCC 2998, 48 h, read-out: Activity
LOX IMVI [5] = assay: Cytotoxicity against human LOXIMVI cells assessed as cell growth at 10^-8 M after 48 hrs by SRB assay; settings: read-out: Activity
HCT-15 [6] = assay: Cytotoxicity against human HCT15 cells assessed as cell growth at 10^-8 M after 48 hrs by SRB assay; settings: HCT-15, 48 h, read-out: Activity
T47D [7] = assay: Cytotoxicity against human T47D cells after 48 hrs by SRB assay
T47D [8] = assay: Cytotoxicity against human T47D cells assessed as cell growth at 10^-5 M after 48 hrs by SRB assay; settings: read-out: Activity
[9] = Cytotoxicity against human UO31 cells assessed as cell growth at 10^-5 M after 48 hrs by SRB assay; settings: UO-31, 48 h, read-out: Activity
PC-3 = assay: Cytotoxicity against human PC3 cells assessed as cell growth at 10^-5 M after 48 hrs by SRB assay; settings: PC-3, 48 h, read-out: Activity
CAKI-1 [10] = assay: Cytotoxicity against human Caki1 cells assessed as cell growth at 10^-5 M after 48 hrs by SRB assay; settings: CAKI-1, 48 h, read-out: Activity
SK-OV-3 = assay: Cytotoxicity against human SKOV3 cells assessed as cell growth at 10^-5 M after 48 hrs by SRB assay; settings: SK-OV-3, 48 h, read-out: Activity
786-0 [11] = assay: Cytotoxicity against human 786-0 cells assessed as cell growth at 10^-5 M after 48 hrs by SRB assay; settings: 786-0, 48 h, read-out: Activity
[12] = Cytotoxicity against human OVCAR5 cells assessed as cell growth at 10^-5 M after 48 hrs by SRB assay; settings: OVCAR-5, 48 h, read-out: Activity
OVCAR-3 = assay: Cytotoxicity against human OVCAR3 cells assessed as cell growth at 10^-5 M after 48 hrs by SRB assay; settings: OVCAR-3, 48 h, read-out: Activity
[13] = Cytotoxicity against human UACC257 cells assessed as cell growth at 10^-5 M after 48 hrs by SRB assay; settings: UACC-257, 48 h, read-out: Activity
UACC-62 = assay: Cytotoxicity against human UACC62 cells assessed as cell growth at 10^-5 M after 48 hrs by SRB assay; settings: UACC-62, 48 h, read-out: Activity
SK-MEL-5 = assay: Cytotoxicity against human SK-MEL-5 cells assessed as cell growth at 10^-5 M after 48 hrs by SRB assay; settings: SK-MEL-5, 48 h, read-out: Activity
SK-MEL-2 = assay: Cytotoxicity against human SK-MEL-2 cells assessed as cell growth at 10^-5 M after 48 hrs by SRB assay; settings: SK-MEL-2, 48 h, read-out: Activity
ACHN = assay: Cytotoxicity against human ACHN cells after 48 hrs by SRB assay
SK-MEL-28 = assay: Cytotoxicity against human SK-MEL-28 cells assessed as cell growth at 10^-5 M after 48 hrs by SRB assay; settings: SK-MEL-28, 48 h, read-out: Activity
Malme-3M = assay: Cytotoxicity against human MALME-3M cells assessed as cell growth at 10^-5 M after 48 hrs by SRB assay; settings: read-out: Activity
LOX IMVI [14] = assay: Cytotoxicity against human LOXIMVI cells assessed as cell growth at 10^-5 M after 48 hrs by SRB assay; settings: read-out: Activity
SF-539 = assay: Cytotoxicity against human SF539 cells assessed as cell growth at 10^-5 M after 48 hrs by SRB assay; settings: SF-539, 48 h, read-out: Activity
SF-268 = assay: Cytotoxicity against human SF268 cells assessed as cell growth at 10^-5 M after 48 hrs by SRB assay; settings: SF-268, 48 h, read-out: Activity
HCT-15 [15] = assay: Cytotoxicity against human HCT15 cells assessed as cell growth at 10^-5 M after 48 hrs by SRB assay; settings: HCT-15, 48 h, read-out: Activity
HCC 2998 [16] = assay: Cytotoxicity against human HCC2998 cells assessed as cell growth at 10^-5 M after 48 hrs by SRB assay; settings: HCC 2998, 48 h, read-out: Activity
COLO 205 = assay: Cytotoxicity against human COLO205 cells assessed as cell growth at 10^-5 M after 48 hrs by SRB assay; settings: COLO 205, 48 h, read-out: Activity
K562 = assay: Cytotoxicity against human K562 cells assessed as cell growth at 10^-5 M after 48 hrs by SRB assay; settings: K562, 48 h, read-out: Activity
HL-60(TB) [17] = assay: Cytotoxicity against human HL-60(TB) cells assessed as cell growth at 10^-5 M after 48 hrs by SRB assay; settings: HL-60, 48 h, read-out: Activity
HOP-92 = assay: Cytotoxicity against human HOP92 cells assessed as growth inhibition at 10 uM after 48 hrs by SRB assay; settings: HOP-92, 48 h, read-out: GI
[18] = Cytotoxicity against human NCI-ADR-RES cells assessed as cell growth at 10^-6 M after 48 hrs by SRB assay; settings: read-out: Activity
SF-295 = assay: Cytotoxicity against human SF295 cells assessed as cell growth at 10^-6 M after 48 hrs by SRB assay; settings: SF-295, 48 h, read-out: Activity
NCI-H460 = assay: Cytotoxicity against human NCI-H460 cells assessed as cell growth at 10^-6 M after 48 hrs by SRB assay; settings: NCI-H460, 48 h, read-out: Activity
CCRF-CEM = assay: Cytotoxicity against human CCRF-CEM cells assessed as cell growth at 10^-6 M after 48 hrs by SRB assay; settings: read-out: Activity
MDA-MB-231 [19] = assay: Cytotoxicity against human MDA-MB-231 cells assessed as cell growth at 10^-7 M after 48 hrs by SRB assay; settings: MDA-MB-231, 48 h, read-out: Activity
786-0 [20] = assay: Cytotoxicity against human 786-0 cells assessed as cell growth at 10^-7 M after 48 hrs by SRB assay; settings: 786-0, 48 h, read-out: Activity

C=CCn1c(C)nc2ccc(Nc3nc(Nc4ccc5nc(C)n(CC=C)c5c4)c4ccccc4n3)cc21
GI50 (HL-60(TB) [1]): 1.86 µM
TGI (HL-60(TB) [1]): 3.72 µM
growth at 100 µM (MDA-MB-231 [2]): -63%
growth at 100 µM (CAKI-1 [3]): -28%
growth at 0.1 µM (NCI-H322M): 90%
growth at 100 µM (M14): -7%
growth at 100 µM (HCC 2998 [4]): -53%
growth at 0.01 µM (LOX IMVI [5]): 91%
growth at 0.01 µM (HCT-15 [6]): 96%
GI50 (T47D [7]): 1.54 µM
TGI (T47D [7]): 3.18 µM
growth at 10 µM (T47D [8]): -91%
growth at 10 µM [9]: -91.4%
growth at 10 µM (PC-3): -82%
growth at 10 µM (CAKI-1 [10]): -81%
growth at 10 µM (SK-OV-3): -100%
growth at 10 µM (786-0 [11]): -93.8%
growth at 10 µM [12]: -98%
growth at 10 µM (OVCAR-3): -99%
growth at 10 µM [13]: -91%
growth at 10 µM (UACC-62): -100%
growth at 10 µM (SK-MEL-5): -98%
growth at 10 µM (SK-MEL-2): -88%
GI50 (ACHN): 1.64 µM
LC50 (ACHN): 5.51 µM
TGI (ACHN): 3.01 µM
growth at 10 µM (SK-MEL-28): -96%
growth at 10 µM (Malme-3M): -78.9%
growth at 10 µM (LOX IMVI [14]): -91%
growth at 10 µM (SF-539): -96%
growth at 10 µM (SF-268): -77%
growth at 10 µM (HCT-15 [15]): -74%
growth at 10 µM (HCC 2998 [16]): -100%
growth at 10 µM (COLO 205): -100%
growth at 10 µM (K562): -49%
growth at 10 µM (HL-60(TB) [17]): -71%
inhibition of growth at 10 µM (HOP-92): 50%
growth at 1 µM [18]: 90%
growth at 1 µM (SF-295): 97%
growth at 1 µM (NCI-H460): 97%
growth at 1 µM (CCRF-CEM): 82%
growth at 0.1 µM (MDA-MB-231 [19]): 87%
growth at 0.1 µM (786-0 [20]): 98%
